Source: patent US11214803B2, “Modulators of YAP1 expression” (Ionis Pharmaceuticals, Inc., priority 2019, dated 2022)
Strand notation (5' to 3'): a small letter for the sugar, then the base; units joined by * are phosphorothioate-linked, units joined directly phosphodiester-linked; [ ] holds rarer units or linkages, { } end groups; capitals alone tell only the bases. k = constrained ethyl (cEt); [5mC] = 5-methylcytosine; d = 2'-deoxy (DNA)

Columns and labels:
[1] = tested on: Yap1 mRNA; experiment: Antisense inhibition of human Yap1 in A-431 cells by cEt gapmers, single dose (Example 2, RTS4814); assay type: cell-based; settings: A-431 cells, 5,000 cells per well, free uptake, 2,000 nM modified oligonucleotide, approx. 48 hours
Procedure: Modified oligonucleotides were designed to target a Yap1 nucleic acid and were tested for their effect on Yap1 mRNA level in vitro. The modified oligonucleotides were tested in a series of experiments that had similar culture conditions. Cultured A-431 cells at a density of 5,000 cells per well were treated using free uptake with 2,000 nM of modified oligonucleotide. After a treatment period of approximately 48 hours, RNA was isolated from the cells and Yap1 mRNA levels were measured by quantitative real-time RTPCR. Human primer probe set RTS4814 was used to measure mRNA levels. Yap1 mRNA levels were normalized to total RNA content, as measured by RIBOGREEN®. Results are presented in the tables below as percent control of the amount of Yap1 mRNA relative to untreated control cells (% UTC). The modified oligonucleotides with percent control values marked with an asterisk (*) target the amplicon region of the primer probe set. Additional assays may be used to measure the potency and efficacy of the modified oligonucleotides targeting the amplicon region.
The newly designed modified oligonucleotides in the Tables below were designed as 3-10-3 cEt gapmers. The gapmers are 16 nucleosides in length, wherein the central gap segment comprises of ten 2′-deoxynucleosides and is flanked by wing segments on the 5′ direction and the 3′ direction comprising three nucleosides each. Each nucleoside in the 5′ wing segment and each nucleoside in the 3′ wing segment has a cEt sugar modification. The internucleoside linkages throughout each gapmer are phosphorothioate (P═S) linkages. All cytosine residues throughout each gapmer are 5-methylcytosines.
“Start site” indicates the 5′-most nucleoside to which the gapmer is targeted in the human gene sequence. “Stop site” indicates the 3′-most nucleoside to which the gapmer is targeted human gene sequence. […] Activity ofthe modified oligonucleotide may be defined in a different experiment.

[2] = tested on: Yap1 mRNA; experiment: Dose-dependent inhibition of human Yap1 in A-431 cells (Example 8, 10,000 cells per well, RTS4814); assay type: cell-based; settings: free uptake, approximately 48 hours, RTS4814; for Yap1 mRNA, % UTC: A-431 cells, 10,000 cells per well; for IC50: A-431 cells, linear regression on log/linear plot
How it was run: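 A-431 cells (10,000/well) dosed with modified oligonucleotides by free uptake; Yap1 mRNA measured ~48 h later with primer-probe set RTS4814, normalized to total RNA (RIBOGREEN). Values are % of untreated control; IC50 from linear regression on log/linear plot.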

[3] = RTS4814, normalized to RIBOGREEN, Table 4, asterisk (*) = targets amplicon region of primer probe set
[4] = Table 5, RTS4814, normalized to RIBOGREEN, Yap1 mRNA relative to untreated control cells
[5] = Table 6, RTS4814, normalized to RIBOGREEN, Yap1 mRNA relative to untreated control cells

Substance: 716346 (kT*kT*kT*d[5mC]*d[5mC]*d[5mC]*dT*dG*dG*d[5mC]*dG*dG*d[5mC]*kG*kG*k[5mC]; antisense) [Compound 716346]
- YAP1 (% UTC) [1, 3]: 77 % UTC

Substance: 716347 (kT*kG*k[5mC]*d[5mC]*dT*dT*dT*d[5mC]*d[5mC]*d[5mC]*d[5mC]*dG*d[5mC]*k[5mC]*kT*k[5mC]; antisense) [Compound 716347]
- YAP1 (% UTC) [1, 4]: 85 % UTC

Substance: 716348 (kA*k[5mC]*kG*dG*dA*dG*dG*d[5mC]*d[5mC]*dG*dG*dA*d[5mC]*kA*kG*k[5mC]; antisense) [Compound 716348]
- YAP1 (% UTC) [1, 5]: 107 % UTC

Substance: 716349 (kA*k[5mC]*kT*dT*dT*dT*dT*d[5mC]*d[5mC]*d[5mC]*dT*d[5mC]*d[5mC]*kA*kA*k[5mC]; antisense) [Compound 716349]
- YAP1 (% UTC) [1, 3]: 78 % UTC

Substance: 716350 (k[5mC]*kT*k[5mC]*dG*dG*dA*d[5mC]*d[5mC]*dT*dG*d[5mC]*dG*dG*k[5mC]*kG*k[5mC]; antisense) [Compound 716350]
- YAP1 (% UTC) [1, 4]: 99 % UTC

Substance: 716351 (kG*kG*kT*d[5mC]*dT*dG*dG*d[5mC]*dG*dG*d[5mC]*dT*dG*k[5mC]*kG*k[5mC]; antisense) [Compound 716351]
- YAP1 (% UTC) [1, 5]: 112 % UTC

Substance: 716352 (k[5mC]*kT*kG*d[5mC]*dG*d[5mC]*d[5mC]*d[5mC]*d[5mC]*dG*dG*d[5mC]*dT*k[5mC]*k[5mC]*kA; antisense) [Compound 716352]
- YAP1 (% UTC) [1, 3]: 105 % UTC

Substance: 716353 (kG*k[5mC]*kA*dT*d[5mC]*d[5mC]*d[5mC]*d[5mC]*d[5mC]*dG*d[5mC]*d[5mC]*d[5mC]*k[5mC]*kG*kG; antisense) [Compound 716353]
- YAP1 (% UTC) [1, 4]: 98 % UTC

Substance: 716354 (kT*k[5mC]*kG*d[5mC]*dT*d[5mC]*dT*d[5mC]*dA*dG*dG*dG*d[5mC]*k[5mC]*kG*kG; antisense) [Compound 716354]
- YAP1 (% UTC) [1, 5]: 114 % UTC

Substance: 716355 (kG*kA*k[5mC]*dG*dG*d[5mC]*dT*dG*d[5mC]*dG*dG*dG*d[5mC]*k[5mC]*kG*kG; antisense) [Compound 716355]
- YAP1 (% UTC) [1, 3]: 96 % UTC

Substance: 716356 (k[5mC]*kG*kA*dG*dG*dT*dG*dG*dA*dG*dA*dA*dG*k[5mC]*kG*kG; antisense) [Compound 716356]
- YAP1 (% UTC) [1, 4]: 112 % UTC

Substance: 716357 (k[5mC]*kG*k[5mC]*d[5mC]*d[5mC]*d[5mC]*dG*dG*d[5mC]*dT*d[5mC]*d[5mC]*dA*k[5mC]*kG*kG; antisense) [Compound 716357]
- YAP1 (% UTC) [1, 5]: 127 % UTC

Substance: 716358 (k[5mC]*kG*kA*dG*dG*dG*d[5mC]*dT*dA*d[5mC]*dG*d[5mC]*d[5mC]*k[5mC]*kG*kG; antisense) [Compound 716358]
- YAP1 (% UTC) [1, 3]: 104 % UTC

Substance: 716359 (k[5mC]*k[5mC]*k[5mC]*d[5mC]*dT*dG*dA*d[5mC]*d[5mC]*d[5mC]*dA*dG*dG*k[5mC]*kG*kA; antisense) [Compound 716359]
- YAP1 (% UTC) [1, 4]: 101 % UTC

Substance: 716360 (k[5mC]*kT*kG*d[5mC]*d[5mC]*d[5mC]*dG*dG*dG*dA*dT*d[5mC]*d[5mC]*kA*kT*kG; antisense) [Compound 716360]
- YAP1 (% UTC) [1, 5]: 118 % UTC

Substance: 716361 (kG*kG*kT*dT*dG*dA*dG*dG*d[5mC]*dG*dG*d[5mC]*dG*kG*k[5mC]*kT; antisense) [Compound 716361]
- YAP1 (% UTC) [1, 3]: 75 % UTC

Substance: 716362 (kA*kG*kG*d[5mC]*dG*dG*d[5mC]*dT*dG*d[5mC]*d[5mC]*d[5mC]*dT*kT*kG*kG; antisense) [Compound 716362]
- YAP1 (% UTC) [1, 4]: 94 % UTC

Substance: 716363 (k[5mC]*kG*kG*dA*d[5mC]*dG*dG*d[5mC]*dG*dG*dG*d[5mC]*d[5mC]*k[5mC]*kT*kG; antisense) [Compound 716363]
- YAP1 (% UTC) [1, 5]: 103 % UTC

Substance: 716364 (k[5mC]*kG*k[5mC]*d[5mC]*dG*d[5mC]*dG*dG*dG*dT*dG*d[5mC]*d[5mC]*kG*kG*kT; antisense) [Compound 716364]
- YAP1 (% UTC) [1, 3]: 110 % UTC

Substance: 716365 (kT*k[5mC]*kT*dG*dA*dT*dG*d[5mC]*d[5mC]*d[5mC]*dG*dG*d[5mC]*kG*kG*kG; antisense) [Compound 716365]
- YAP1 (% UTC) [1, 4]: 83 % UTC

Substance: 716366 (k[5mC]*kA*kG*dG*dT*d[5mC]*dG*dG*dT*d[5mC]*dT*d[5mC]*d[5mC]*kG*kA*kG; antisense) [Compound 716366]
- YAP1 (% UTC) [1, 5]: 95 % UTC

Substance: 716367 (k[5mC]*kA*kT*dG*dG*dG*d[5mC]*dA*d[5mC]*dG*dG*dT*d[5mC]*kT*kG*kG; antisense) [Compound 716367]
- YAP1 (% UTC) [1, 3]: 70 % UTC

Substance: 716368 (kG*kT*k[5mC]*dG*dG*dG*d[5mC]*dA*dG*d[5mC]*dT*dT*d[5mC]*k[5mC]*kG*kG; antisense) [Compound 716368]
- YAP1 (% UTC) [1, 4]: 86 % UTC

Substance: 716369 (k[5mC]*kG*kG*d[5mC]*dG*dG*d[5mC]*dT*dT*dG*dA*dA*dG*kA*kA*kG; antisense) [Compound 716369]
- YAP1 (% UTC) [1, 5]: 94 % UTC

Substance: 716370 (k[5mC]*kA*kG*dT*dG*d[5mC]*d[5mC]*dT*dG*d[5mC]*dA*dT*d[5mC]*kA*kG*kT; antisense) [Compound 716370]
- YAP1 (% UTC) [1, 3]: 25 % UTC

Substance: 716371 (kT*kG*kG*dA*dG*dT*d[5mC]*dA*dG*dG*dG*d[5mC]*dT*k[5mC]*k[5mC]*kT; antisense) [Compound 716371]
- YAP1 (% UTC) [1, 4]: 115 % UTC

Substance: 716372 (kA*kT*kG*dA*dG*d[5mC]*dT*d[5mC]*dG*dA*dA*d[5mC]*dA*kT*kG*k[5mC]; antisense) [Compound 716372]
- YAP1 (% UTC) [1, 5]: 61 % UTC

Substance: 716373 (k[5mC]*kA*kA*d[5mC]*dT*dG*d[5mC]*dA*dG*dA*dG*dA*dA*kG*k[5mC]*kT; antisense) [Compound 716373]
- YAP1 (% UTC) [1, 3]: 69 % UTC

Substance: 716374 (kG*kG*kT*d[5mC]*dA*dG*dT*dG*dT*d[5mC]*d[5mC]*d[5mC]*dA*kG*kG*kA; antisense) [Compound 716374]
- YAP1 (% UTC) [1, 4]: 54 % UTC

Substance: 716375 (kG*kA*kG*dA*d[5mC]*dT*dA*d[5mC]*dT*d[5mC]*d[5mC]*dA*dG*kT*kG*kG; antisense) [Compound 716375]
- YAP1 (% UTC) [1, 5]: 63 % UTC

Substance: 716376 (k[5mC]*kG*kA*dA*dG*dA*dT*dG*d[5mC]*dT*dG*dA*dG*k[5mC]*kT*kG; antisense) [Compound 716376]
- YAP1 (% UTC) [1, 3]: 35 % UTC

Substance: 716377 (kG*kG*kT*dA*dT*d[5mC]*dT*d[5mC]*dA*dA*dA*dA*dG*kA*kA*kG; antisense) [Compound 716377]
- YAP1 (% UTC) [1, 4]: 76 % UTC

Substance: 716378 (kG*k[5mC]*kA*dG*dA*dG*dG*dT*dA*d[5mC]*dA*dT*d[5mC]*kA*kT*k[5mC]; antisense) [Compound 716378]
- YAP1 (% UTC) [1, 5]: 44 % UTC

Substance: 1076523 (kA*kT*kT*dT*dA*dT*dA*dT*d[5mC]*dA*dG*dG*dT*k[5mC]*kA*kA; antisense) [compound 1076523]
- Yap1 mRNA, % UTC ([2]; 31.3 nM): 67 % UTC
- Yap1 mRNA, % UTC ([2]; 125.0 nM): 38 % UTC
- Yap1 mRNA, % UTC ([2]; 500.0 nM): 18 % UTC
- Yap1 mRNA, % UTC ([2]; 2000.00 nM): 7 % UTC
- IC50 [2]: 100 nM

Substance: 1076549 (kG*kT*kG*d[5mC]*dA*dA*dA*dA*dT*dA*d[5mC]*d[5mC]*dT*kT*kT*kG; antisense) [compound 1076549]
- Yap1 mRNA, % UTC ([2]; 31.3 nM): 53 % UTC
- Yap1 mRNA, % UTC ([2]; 125.0 nM): 24 % UTC
- Yap1 mRNA, % UTC ([2]; 500.0 nM): 10 % UTC
- Yap1 mRNA, % UTC ([2]; 2000.00 nM): 6 % UTC
- IC50 [2]: < 20 nM

Substance: 1076552 (kA*kT*kG*dT*dA*dT*dA*dA*dA*dT*dA*d[5mC]*d[5mC]*kA*kG*kG; antisense) [compound 1076552]
- Yap1 mRNA, % UTC ([2]; 31.3 nM): 73 % UTC
- Yap1 mRNA, % UTC ([2]; 125.0 nM): 40 % UTC
- Yap1 mRNA, % UTC ([2]; 500.0 nM): 17 % UTC
- Yap1 mRNA, % UTC ([2]; 2000.00 nM): 12 % UTC
- IC50 [2]: 100 nM
